Experimental data taken from patent US20250296949A1, “HIGH PURITY NON-ANIMAL DERIVED UDCA” (priority 2021, published 2025).

Test: DVS mass change of crystalline 3,7-DKCA salts
Assay type: physicochemical

## CC(C)(C)N.C[C@H](CCC(=O)O)[C@H]1CC[C@H]2[C@@H]3C(=O)C[C@@H]4CC(=O)CC[C@]4(C)[C@H]3CC[C@]12C [tert-Butylamine salt, tert-butylamine salt of 3,7-DKCA]
  DVS mass change 5-95% RH (wt. %): 10.89 wt. %

## CC(C)NC(C)C.C[C@H](CCC(=O)O)[C@H]1CC[C@H]2[C@@H]3C(=O)C[C@@H]4CC(=O)CC[C@]4(C)[C@H]3CC[C@]12C [Diisopropylamine salt, diisopropylamine salt of 3,7-DKCA]
  DVS mass change 5-95% RH (wt. %): 2.53 wt. %

## C[C@H](CCC(=O)O)[C@H]1CC[C@H]2[C@@H]3C(=O)C[C@@H]4CC(=O)CC[C@]4(C)[C@H]3CC[C@]12C.NCCN [Ethylenediamine salt, ethylenediamine salt of 3,7-DKCA]
  DVS mass change 5-95% RH (wt. %): 19.60 wt. %
